The record followed here is paper PMC4520562 (PLoS ONE, 2015).

The target of assay [1] is GD H6 HA (Influenza A virus (A/chicken/Guangdong/S1311/2010(H6N6)), UniProt A0A067YZV9). As to conditions: 2 h, pH 8.0, receptor-binding site.
The target in assay [2] is A/Taiwan/2/2013(H6N1) hemagglutinin ectodomain, trypsin-cleaved into HA1 and HA2 (influenza A virus A/Taiwan/2/2013(H6N1)). In words: crystal structure.
Assay [3] addresses A/chicken/Guangdong/S1311/2010(H6N6) hemagglutinin ectodomain, trypsin-cleaved into HA1 and HA2 (influenza A virus A/chicken/Guangdong/S1311/2010(H6N6)). In words: crystal structure.

Like-named read-outs stand apart in the source and are kept apart here.

`CC(=O)N[C@H]1[C@H](O[C@H]2[C@@H](O)[C@@H](CO)O[C@@H](O[C@H]3[C@H](O)[C@@H](O)C(O)O[C@@H]3CO)[C@@H]2O)O[C@H](CO)[C@@H](O)[C@@H]1O[C@@H]1O[C@H](CO)[C@H](O)[C@H](O[C@]2(C(=O)O)C[C@H](O)[C@@H](NC(C)=O)[C@H]([C@H](O)[C@H](O)CO)O2)[C@H]1O` (stereo partly shown) [LSTa]: the “X-ray crystal structure of complex” value in assay [1] (crystal soaked with 5 mM LSTa, first three sugars visible) was “Gal-2 and GlcNAc-3 of the LSTa are clearly visualized in both GD and TW H6 HA”.

For `CC(=O)N[C@H]1[C@H](O[C@H]2[C@@H](O)[C@@H](CO)O[C@@H](O[C@H]3[C@H](O)[C@@H](O)C(O)O[C@@H]3CO)[C@@H]2O)O[C@H](CO)[C@@H](O[C@@H]2O[C@H](CO[C@]3(C(=O)O)C[C@H](O)[C@@H](NC(C)=O)[C@H]([C@H](O)[C@H](O)CO)O3)[C@H](O)[C@H](O)[C@H]2O)[C@@H]1O` (stereo partly shown) [LSTc], the “X-ray crystal structure of complex” value in assay [1] (crystal soaked with 5 mM LSTc, first two sugars visible) is “only the first two sugar rings are clearly visible in the complex structure of GD H6 HA-LSTc”.

One may read the stoichiometry N as a count of units in the complex or per binding partner. “A/Taiwan/2/2013(H6N1) hemagglutinin ectodomain, trypsin-cleaved into HA1 and HA2 (domain or fragment)”: the stoichiometry N in assay [2] amounted to 3.

Take “A/chicken/Guangdong/S1311/2010(H6N6) hemagglutinin ectodomain, trypsin-cleaved into HA1 and HA2 (domain or fragment)”: the stoichiometry N in assay [3] came out at 3.
